Test results from ChEMBL document CHEMBL3046265, “Synthesis, evaluation of antimicrobial activity, and molecular modeling of novel 2-((4-(2H-benzo[d] [1,2,3] triazol-2-yl)piperidin-1-yl)methyl)-5-substituted phenyl-1,3,4-oxadiazoles” (2013).

Legend:
Type in all cases: functional
Conditions in all cases: read-out: IZ
Exserohilum rostratum [1] = assay: Antifungal activity against Setosphaeria rostrata at 600 ug/ml after 48 hr
Colletotrichum falcatum [2] = assay: Antifungal activity against Glomerella tucumanensis at 900 ug/ml after 48 hr
Enterococcus faecalis [3] = assay: Antibacterial activity against Enterococcus faecalis at 900 ug/ml after overnight incubation
Exserohilum rostratum [4] = assay: Antifungal activity against Setosphaeria rostrata at 1200 ug/ml after 48 hr
Streptococcus pyogenes [5] = assay: Antibacterial activity against Streptococcus pyogenes at 900 ug/ml after overnight incubation
Escherichia coli [6] = assay: Antibacterial activity against Escherichia coli at 600 ug/ml after overnight incubation
Escherichia coli [7] = assay: Antibacterial activity against Escherichia coli at 900 ug/ml after overnight incubation
Proteus vulgaris [8] = assay: Antibacterial activity against Proteus vulgaris at 900 ug/ml after overnight incubation
Candida albicans [9] = assay: Antifungal activity against Candida albicans at 600 ug/ml after 48 hr
Colletotrichum falcatum [10] = assay: Antifungal activity against Glomerella tucumanensis at 300 ug/ml after 48 hr
Bacillus subtilis [11] = assay: Antibacterial activity against Bacillus subtilis at 600 ug/ml after overnight incubation
Priestia megaterium [12] = assay: Antibacterial activity against Bacillus megaterium at 900 ug/ml after overnight incubation
Fusarium oxysporum [13] = assay: Antifungal activity against Fusarium oxysporum at 1200 ug/ml after 48 hr
Candida albicans [14] = assay: Antifungal activity against Candida albicans at 1200 ug/ml after 48 hr
Klebsiella pneumoniae [15] = assay: Antibacterial activity against Klebsiella pneumoniae at 900 ug/ml after overnight incubation
Fusarium oxysporum [16] = assay: Antifungal activity against Fusarium oxysporum at 600 ug/ml after 48 hr
Fusarium oxysporum [17] = assay: Antifungal activity against Fusarium oxysporum at 300 ug/ml after 48 hr
Enterococcus faecalis [18] = assay: Antibacterial activity against Enterococcus faecalis at 600 ug/ml after overnight incubation
Staphylococcus aureus [19] = assay: Antibacterial activity against Staphylococcus aureus at 600 ug/ml after overnight incubation
Proteus vulgaris [20] = assay: Antibacterial activity against Proteus vulgaris at 600 ug/ml after overnight incubation
Staphylococcus aureus [21] = assay: Antibacterial activity against Staphylococcus aureus at 900 ug/ml after overnight incubation
Colletotrichum falcatum [22] = assay: Antifungal activity against Glomerella tucumanensis at 600 ug/ml after 48 hr
Exserohilum rostratum [23] = assay: Antifungal activity against Setosphaeria rostrata at 900 ug/ml after 48 hr
Bacillus pumilus [24] = assay: Antibacterial activity against Bacillus pumilus at 900 ug/ml after overnight incubation
Candida albicans [25] = assay: Antifungal activity against Candida albicans at 900 ug/ml after 48 hr
Klebsiella aerogenes [26] = assay: Antibacterial activity against Enterobacter aerogenes at 900 ug/ml after overnight incubation
Bacillus pumilus [27] = assay: Antibacterial activity against Bacillus pumilus at 600 ug/ml after overnight incubation
Colletotrichum falcatum [28] = assay: Antifungal activity against Glomerella tucumanensis at 1200 ug/ml after 48 hr
Bacillus subtilis [29] = assay: Antibacterial activity against Bacillus subtilis at 900 ug/ml after overnight incubation
Priestia megaterium [30] = assay: Antibacterial activity against Bacillus megaterium at 600 ug/ml after overnight incubation
Streptococcus pyogenes [31] = assay: Antibacterial activity against Streptococcus pyogenes at 600 ug/ml after overnight incubation
Klebsiella aerogenes [32] = assay: Antibacterial activity against Enterobacter aerogenes at 600 ug/ml after overnight incubation
Fusarium oxysporum [33] = assay: Antifungal activity against Fusarium oxysporum at 900 ug/ml after 48 hr
Klebsiella pneumoniae [34] = assay: Antibacterial activity against Klebsiella pneumoniae at 600 ug/ml after overnight incubation
Candida albicans [35] = assay: Antifungal activity against Candida albicans at 300 ug/ml after 48 hr
Exserohilum rostratum [36] = assay: Antifungal activity against Setosphaeria rostrata at 300 ug/ml after 48 hr

Brc1cccc(-c2nnc(CN3CCC(n4nc5ccccc5n4)CC3)o2)c1
zone of inhibition at 600 µg/mL (Exserohilum rostratum [1]): 4.01 mm | zone of inhibition at 900 µg/mL (Colletotrichum falcatum [2]): 9.25 mm | zone of inhibition at 900 µg/mL (Enterococcus faecalis [3]): 5.8 mm | zone of inhibition at 1200 µg/mL (Exserohilum rostratum [4]): 15.1 mm | zone of inhibition at 900 µg/mL (Streptococcus pyogenes [5]): 7.25 mm | zone of inhibition at 600 µg/mL (Escherichia coli [6]): 3.25 mm | zone of inhibition at 900 µg/mL (Escherichia coli [7]): 6.45 mm | zone of inhibition at 900 µg/mL (Proteus vulgaris [8]): 5.03 mm | zone of inhibition at 600 µg/mL (Candida albicans [9]): 4.03 mm | zone of inhibition at 300 µg/mL (Colletotrichum falcatum [10]): 2.95 mm | zone of inhibition at 600 µg/mL (Bacillus subtilis [11]): 4.25 mm | zone of inhibition at 900 µg/mL (Priestia megaterium [12]): 7.25 mm | zone of inhibition at 1200 µg/mL (Fusarium oxysporum [13]): 29.9 mm | zone of inhibition at 1200 µg/mL (Candida albicans [14]): 16.8 mm | zone of inhibition at 900 µg/mL (Klebsiella pneumoniae [15]): 7.62 mm | zone of inhibition at 600 µg/mL (Fusarium oxysporum [16]): 7.86 mm | zone of inhibition at 300 µg/mL (Fusarium oxysporum [17]): 3.55 mm | zone of inhibition at 600 µg/mL (Enterococcus faecalis [18]): 3.21 mm | zone of inhibition at 600 µg/mL (Staphylococcus aureus [19]): 4.46 mm | zone of inhibition at 600 µg/mL (Proteus vulgaris [20]): 2.25 mm | zone of inhibition at 900 µg/mL (Staphylococcus aureus [21]): 8.25 mm | zone of inhibition at 600 µg/mL (Colletotrichum falcatum [22]): 5.01 mm | zone of inhibition at 900 µg/mL (Exserohilum rostratum [23]): 7.96 mm | zone of inhibition at 900 µg/mL (Bacillus pumilus [24]): 8.12 mm | zone of inhibition at 900 µg/mL (Candida albicans [25]): 7.86 mm | zone of inhibition at 900 µg/mL (Klebsiella aerogenes [26]): 11.6 mm | zone of inhibition at 600 µg/mL (Bacillus pumilus [27]): 4.25 mm | zone of inhibition at 1200 µg/mL (Colletotrichum falcatum [28]): 17.8 mm | zone of inhibition at 900 µg/mL (Bacillus subtilis [29]): 9.25 mm | zone of inhibition at 600 µg/mL (Priestia megaterium [30]): 3.26 mm | zone of inhibition at 600 µg/mL (Streptococcus pyogenes [31]): 3.85 mm | zone of inhibition at 600 µg/mL (Klebsiella aerogenes [32]): 5.85 mm | zone of inhibition at 900 µg/mL (Fusarium oxysporum [33]): 15.8 mm | zone of inhibition at 600 µg/mL (Klebsiella pneumoniae [34]): 3.25 mm | zone of inhibition at 300 µg/mL (Candida albicans [35]): 2.5 mm | zone of inhibition at 300 µg/mL (Exserohilum rostratum [36]): 3.98 mm

Cc1ccc(-c2nnc(CN3CCC(n4nc5ccccc5n4)CC3)o2)cc1Br
zone of inhibition at 600 µg/mL (Exserohilum rostratum [1]): 5.21 mm | zone of inhibition at 900 µg/mL (Colletotrichum falcatum [2]): 14 mm | zone of inhibition at 900 µg/mL (Enterococcus faecalis [3]): 5.56 mm | zone of inhibition at 1200 µg/mL (Exserohilum rostratum [4]): 17.2 mm | zone of inhibition at 900 µg/mL (Streptococcus pyogenes [5]): 5.56 mm | zone of inhibition at 600 µg/mL (Escherichia coli [6]): 6.85 mm | zone of inhibition at 900 µg/mL (Escherichia coli [7]): 11.1 mm | zone of inhibition at 900 µg/mL (Proteus vulgaris [8]): 10.1 mm | zone of inhibition at 600 µg/mL (Candida albicans [9]): 5.51 mm | zone of inhibition at 300 µg/mL (Colletotrichum falcatum [10]): 4.22 mm | zone of inhibition at 600 µg/mL (Bacillus subtilis [11]): 4.25 mm | zone of inhibition at 900 µg/mL (Priestia megaterium [12]): 9.85 mm | zone of inhibition at 1200 µg/mL (Fusarium oxysporum [13]): 26.9 mm | zone of inhibition at 1200 µg/mL (Candida albicans [14]): 17.8 mm | zone of inhibition at 900 µg/mL (Klebsiella pneumoniae [15]): 12.8 mm | zone of inhibition at 600 µg/mL (Fusarium oxysporum [16]): 7.36 mm | zone of inhibition at 300 µg/mL (Fusarium oxysporum [17]): 4.21 mm | zone of inhibition at 600 µg/mL (Enterococcus faecalis [18]): 3.35 mm | zone of inhibition at 600 µg/mL (Staphylococcus aureus [19]): 5.85 mm | zone of inhibition at 600 µg/mL (Proteus vulgaris [20]): 4.85 mm | zone of inhibition at 900 µg/mL (Staphylococcus aureus [21]): 11.2 mm | zone of inhibition at 600 µg/mL (Colletotrichum falcatum [22]): 7.8 mm | zone of inhibition at 900 µg/mL (Exserohilum rostratum [23]): 9.86 mm | zone of inhibition at 900 µg/mL (Bacillus pumilus [24]): 6.56 mm | zone of inhibition at 900 µg/mL (Candida albicans [25]): 9.26 mm | zone of inhibition at 900 µg/mL (Klebsiella aerogenes [26]): 7.05 mm | zone of inhibition at 600 µg/mL (Bacillus pumilus [27]): 3.32 mm | zone of inhibition at 1200 µg/mL (Colletotrichum falcatum [28]): 25.6 mm | zone of inhibition at 900 µg/mL (Bacillus subtilis [29]): 9.05 mm | zone of inhibition at 600 µg/mL (Priestia megaterium [30]): 5.85 mm | zone of inhibition at 600 µg/mL (Streptococcus pyogenes [31]): 2.25 mm | zone of inhibition at 600 µg/mL (Klebsiella aerogenes [32]): 3.55 mm | zone of inhibition at 900 µg/mL (Fusarium oxysporum [33]): 13.2 mm | zone of inhibition at 600 µg/mL (Klebsiella pneumoniae [34]): 6.02 mm | zone of inhibition at 300 µg/mL (Candida albicans [35]): 3.23 mm | zone of inhibition at 300 µg/mL (Exserohilum rostratum [36]): 3.25 mm

c1ccc(-c2nnc(CN3CCC(n4nc5ccccc5n4)CC3)o2)cc1
zone of inhibition at 600 µg/mL (Exserohilum rostratum [1]): 6.25 mm | zone of inhibition at 900 µg/mL (Colletotrichum falcatum [2]): 13.2 mm | zone of inhibition at 900 µg/mL (Enterococcus faecalis [3]): 9.25 mm | zone of inhibition at 1200 µg/mL (Exserohilum rostratum [4]): 24 mm | zone of inhibition at 900 µg/mL (Streptococcus pyogenes [5]): 8.25 mm | zone of inhibition at 600 µg/mL (Escherichia coli [6]): 2.24 mm | zone of inhibition at 900 µg/mL (Escherichia coli [7]): 4.85 mm | zone of inhibition at 900 µg/mL (Proteus vulgaris [8]): 7.5 mm | zone of inhibition at 600 µg/mL (Candida albicans [9]): 6.05 mm | zone of inhibition at 300 µg/mL (Colletotrichum falcatum [10]): 3.56 mm | zone of inhibition at 600 µg/mL (Bacillus subtilis [11]): 2.65 mm | zone of inhibition at 900 µg/mL (Priestia megaterium [12]): 11.4 mm | zone of inhibition at 1200 µg/mL (Fusarium oxysporum [13]): 21.3 mm | zone of inhibition at 1200 µg/mL (Candida albicans [14]): 24.2 mm | zone of inhibition at 900 µg/mL (Klebsiella pneumoniae [15]): 6.56 mm | zone of inhibition at 600 µg/mL (Fusarium oxysporum [16]): 4.85 mm | zone of inhibition at 300 µg/mL (Fusarium oxysporum [17]): 2.25 mm | zone of inhibition at 600 µg/mL (Enterococcus faecalis [18]): 4.25 mm | zone of inhibition at 600 µg/mL (Staphylococcus aureus [19]): 3.26 mm | zone of inhibition at 600 µg/mL (Proteus vulgaris [20]): 3.8 mm | zone of inhibition at 900 µg/mL (Staphylococcus aureus [21]): 8.25 mm | zone of inhibition at 600 µg/mL (Colletotrichum falcatum [22]): 7.26 mm | zone of inhibition at 900 µg/mL (Exserohilum rostratum [23]): 11.8 mm | zone of inhibition at 900 µg/mL (Bacillus pumilus [24]): 8.65 mm | zone of inhibition at 900 µg/mL (Candida albicans [25]): 13.2 mm | zone of inhibition at 900 µg/mL (Klebsiella aerogenes [26]): 11.2 mm | zone of inhibition at 600 µg/mL (Bacillus pumilus [27]): 4.25 mm | zone of inhibition at 1200 µg/mL (Colletotrichum falcatum [28]): 27.9 mm | zone of inhibition at 900 µg/mL (Bacillus subtilis [29]): 5.45 mm | zone of inhibition at 600 µg/mL (Priestia megaterium [30]): 5.82 mm | zone of inhibition at 600 µg/mL (Streptococcus pyogenes [31]): 4.01 mm | zone of inhibition at 600 µg/mL (Klebsiella aerogenes [32]): 5.82 mm | zone of inhibition at 900 µg/mL (Fusarium oxysporum [33]): 10.2 mm | zone of inhibition at 600 µg/mL (Klebsiella pneumoniae [34]): 3.35 mm | zone of inhibition at 300 µg/mL (Candida albicans [35]): 3.12 mm | zone of inhibition at 300 µg/mL (Exserohilum rostratum [36]): 3.15 mm
